In the NIST ThermoML archive (doi:10.1016/j.jct.2005.04.010):
Numbers after ± are expanded uncertainties.

Assay: activity coefficient (dimensionless); of the first substance listed, at infinite dilution; xn = mol fraction of the nth substance listed
Details: Liquid, x1 = 0

| SMILES | activity coefficient (303.15 K, Chromatography) | activity coefficient (313.15 K, Chromatography) | activity coefficient (323.15 K, Chromatography) | activity coefficient (333.15 K, Chromatography) | activity coefficient (303.15 K, dilutor) | activity coefficient (313.15 K, dilutor) | activity coefficient (323.15 K, dilutor) | activity coefficient (333.15 K, dilutor) |
| --- | --- | --- | --- | --- | --- | --- | --- | --- |
| C=CCCCCCC [oct-1-ene] + CCCCCCCCn1cc[n+](C)c1.O=S(=O)([N-]S(=O)(=O)C(F)(F)F)C(F)(F)F | 5.57 ± 0.25 | 5.48 ± 0.25 | 5.32 ± 0.24 | 5.28 ± 0.24 |  |  |  |  |
| C1CCCC1 [cyclopentane] + CCCCCC[n+]1ccn(C)c1.O=S(=O)([N-]S(=O)(=O)C(F)(F)F)C(F)(F)F |  |  |  |  | 3.64 ± 0.18 | 3.48 ± 0.17 | 3.27 ± 0.16 | 3.26 ± 0.16 |
| Cc1ccc(C)cc1 [1,4-dimethylbenzene] + CCCCCC[n+]1ccn(C)c1.O=S(=O)([N-]S(=O)(=O)C(F)(F)F)C(F)(F)F | 1.42 ± 0.05 | 1.42 ± 0.05 | 1.48 ± 0.06 | 1.51 ± 0.06 |  |  |  |  |
| C1CCCCC1 [cyclohexane] + CCCCCC[n+]1ccn(C)c1.O=S(=O)([N-]S(=O)(=O)C(F)(F)F)C(F)(F)F | 5.48 ± 0.25 | 5.15 ± 0.24 | 4.9 ± 0.22 | 4.75 ± 0.22 | 5.29 ± 0.26 | 5.01 ± 0.25 | 4.78 ± 0.24 | 4.68 ± 0.23 |
| C=CCCCCC [1-heptene] + CCCC[N+]1(C)CCCC1.O=S(=O)([N-]S(=O)(=O)C(F)(F)F)C(F)(F)F |  |  |  |  | 10.4 ± 0.5 | 9.97 ± 0.5 | 9.69 ± 0.48 | 9.37 ± 0.47 |
| CCCCCCC [heptane] + CCCCCC[n+]1ccn(C)c1.O=S(=O)([N-]S(=O)(=O)C(F)(F)F)C(F)(F)F | 11.2 ± 0.5 | 10.6 ± 0.5 | 10 ± 0.5 | 9.67 ± 0.44 | 11 ± 0.6 | 10.6 ± 0.5 | 10.1 ± 0.5 | 9.77 ± 0.49 |
| CCO [ethanol] + CCCCCCCCn1cc[n+](C)c1.O=S(=O)([N-]S(=O)(=O)C(F)(F)F)C(F)(F)F | 1.46 ± 0.06 | 1.34 ± 0.05 | 1.22 ± 0.04 | 1.12 ± 0.03 |  |  |  |  |
| C=CCCC [1-pentene] + CCCC[N+]1(C)CCCC1.O=S(=O)([N-]S(=O)(=O)C(F)(F)F)C(F)(F)F |  |  |  |  | 4.95 ± 0.25 | 4.91 ± 0.25 | 4.81 ± 0.24 | 4.8 ± 0.24 |
| CCCCC [pentane] + CCCCCC[n+]1ccn(C)c1.O=S(=O)([N-]S(=O)(=O)C(F)(F)F)C(F)(F)F | 5.95 ± 0.27 | 5.76 ± 0.26 | 5.65 ± 0.26 | 5.52 ± 0.25 | 5.93 ± 0.3 | 5.67 ± 0.28 | 5.48 ± 0.27 | 5.27 ± 0.26 |
| CCCC(C)=O [pentan-2-one] + CCCC[N+]1(C)CCCC1.O=S(=O)([N-]S(=O)(=O)C(F)(F)F)C(F)(F)F |  |  |  |  | 0.63 ± 0.03 | 0.66 ± 0.03 | 0.68 ± 0.03 | 0.71 ± 0.04 |
| CCO [ethanol] + CCCCCC[n+]1ccn(C)c1.O=S(=O)([N-]S(=O)(=O)C(F)(F)F)C(F)(F)F | 1.6 ± 0.06 | 1.47 ± 0.06 | 1.36 ± 0.05 | 1.27 ± 0.04 |  |  |  |  |
| CCCCC [pentane] + CCCC[N+]1(C)CCCC1.O=S(=O)([N-]S(=O)(=O)C(F)(F)F)C(F)(F)F |  |  |  |  | 9.22 ± 0.46 | 9.18 ± 0.46 | 8.62 ± 0.43 | 8.29 ± 0.41 |
| O [water] + CCCCCCCCn1cc[n+](C)c1.O=S(=O)([N-]S(=O)(=O)C(F)(F)F)C(F)(F)F | 3.89 ± 0.18 | 3.52 ± 0.16 | 3.03 ± 0.14 | 2.58 ± 0.12 | 3.76 ± 0.19 | 3.51 ± 0.18 | 3.29 ± 0.16 |  |
| CC(C)=O [acetone] + CCCCCC[n+]1ccn(C)c1.O=S(=O)([N-]S(=O)(=O)C(F)(F)F)C(F)(F)F |  |  |  |  | 0.31 ± 0.02 | 0.32 ± 0.02 | 0.34 ± 0.02 | 0.34 ± 0.02 |
| CCC(C)=O [butanone] + CCCCCC[n+]1ccn(C)c1.O=S(=O)([N-]S(=O)(=O)C(F)(F)F)C(F)(F)F | 0.41 ± 0.03 | 0.42 ± 0.03 | 0.44 ± 0.03 | 0.44 ± 0.03 |  |  |  |  |
| C=CCCCC [hex-1-ene] + CCCCCCCCn1cc[n+](C)c1.O=S(=O)([N-]S(=O)(=O)C(F)(F)F)C(F)(F)F | 3.29 ± 0.15 | 3.27 ± 0.15 | 3.18 ± 0.14 | 3.18 ± 0.14 | 3.33 ± 0.17 | 3.3 ± 0.17 | 3.27 ± 0.16 | 3.23 ± 0.16 |
| C1CCCCC1 [cyclohexane] + CCCC[N+]1(C)CCCC1.O=S(=O)([N-]S(=O)(=O)C(F)(F)F)C(F)(F)F |  |  |  |  | 8.75 ± 0.44 | 8.43 ± 0.42 | 7.91 ± 0.4 | 7.42 ± 0.37 |
| CCCCCCC [heptane] + CCCC[N+]1(C)CCCC1.O=S(=O)([N-]S(=O)(=O)C(F)(F)F)C(F)(F)F |  |  |  |  | 20.7 ± 1 | 19.3 ± 1 | 18.2 ± 0.9 | 17.2 ± 0.9 |

| SMILES | activity coefficient (303.15 K, Chromatography) | activity coefficient (313.15 K, Chromatography) | activity coefficient (323.15 K, Chromatography) | activity coefficient (333.15 K, Chromatography) | activity coefficient (303.15 K, dilutor) | activity coefficient (313.15 K, dilutor) | activity coefficient (323.15 K, dilutor) | activity coefficient (333.15 K, dilutor) |
| --- | --- | --- | --- | --- | --- | --- | --- | --- |
| CCCCC [pentane] + CCCCCCCCn1cc[n+](C)c1.O=S(=O)([N-]S(=O)(=O)C(F)(F)F)C(F)(F)F | 4.07 ± 0.19 | 3.94 ± 0.18 | 3.78 ± 0.17 | 3.6 ± 0.16 | 3.98 ± 0.2 | 3.92 ± 0.2 | 3.87 ± 0.19 | 3.84 ± 0.19 |
| C=CCCC [1-pentene] + CCCCCC[n+]1ccn(C)c1.O=S(=O)([N-]S(=O)(=O)C(F)(F)F)C(F)(F)F | 3.47 ± 0.16 | 3.4 ± 0.15 | 3.3 ± 0.15 | 3.31 ± 0.15 | 3.36 ± 0.17 | 3.33 ± 0.17 | 3.3 ± 0.17 | 3.23 ± 0.16 |
| c1ccccc1 [benzene] + CCCCCCCCn1cc[n+](C)c1.O=S(=O)([N-]S(=O)(=O)C(F)(F)F)C(F)(F)F | 0.63 ± 0.03 | 0.65 ± 0.03 | 0.65 ± 0.03 | 0.66 ± 0.03 |  |  |  |  |
| C=CCCCCCC [oct-1-ene] + CCCC[N+]1(C)CCCC1.O=S(=O)([N-]S(=O)(=O)C(F)(F)F)C(F)(F)F |  |  |  |  | 15 ± 0.8 | 13.9 ± 0.7 | 13.3 ± 0.7 | 13.2 ± 0.7 |
| CCCCCCCC [octane] + CCCC[N+]1(C)CCCC1.O=S(=O)([N-]S(=O)(=O)C(F)(F)F)C(F)(F)F |  |  |  |  | 28.3 ± 1.4 | 26.5 ± 1.3 | 25.2 ± 1.3 | 23.7 ± 1.2 |
| C1=CCCCC1 [cyclohexene] + CCCCCC[n+]1ccn(C)c1.O=S(=O)([N-]S(=O)(=O)C(F)(F)F)C(F)(F)F | 3.42 ± 0.16 | 3.28 ± 0.15 | 3.18 ± 0.14 | 3.14 ± 0.14 | 3.2 ± 0.16 | 3.15 ± 0.16 | 3.07 ± 0.15 | 3.01 ± 0.15 |
| CCCC(C)=O [pentan-2-one] + CCCCCC[n+]1ccn(C)c1.O=S(=O)([N-]S(=O)(=O)C(F)(F)F)C(F)(F)F | 0.51 ± 0.03 | 0.52 ± 0.03 | 0.54 ± 0.03 | 0.55 ± 0.03 |  |  |  |  |
| CCCCCC [hexane] + CCCCCC[n+]1ccn(C)c1.O=S(=O)([N-]S(=O)(=O)C(F)(F)F)C(F)(F)F | 8.23 ± 0.38 | 7.82 ± 0.36 | 7.48 ± 0.34 | 7.27 ± 0.33 | 7.82 ± 0.39 | 7.55 ± 0.38 | 6.96 ± 0.35 | 6.55 ± 0.33 |
| Cc1cccc(C)c1 [1,3-dimethylbenzene] + CCCCCCCCn1cc[n+](C)c1.O=S(=O)([N-]S(=O)(=O)C(F)(F)F)C(F)(F)F | 1.13 ± 0.03 | 1.15 ± 0.04 | 1.17 ± 0.04 | 1.19 ± 0.04 |  |  |  |  |
| CCCCCC [hexane] + CCCC[N+]1(C)CCCC1.O=S(=O)([N-]S(=O)(=O)C(F)(F)F)C(F)(F)F |  |  |  |  | 13.8 ± 0.7 | 13.3 ± 0.7 | 12.1 ± 0.6 | 11 ± 0.6 |
| c1ccccc1 [benzene] + CCCC[N+]1(C)CCCC1.O=S(=O)([N-]S(=O)(=O)C(F)(F)F)C(F)(F)F |  |  |  |  | 0.84 ± 0.04 | 0.86 ± 0.04 | 0.88 ± 0.04 | 0.89 ± 0.04 |
| Cc1ccccc1C [1,2-dimethylbenzene] + CCCCCCCCn1cc[n+](C)c1.O=S(=O)([N-]S(=O)(=O)C(F)(F)F)C(F)(F)F | 0.98 ± 0.03 | 1.03 ± 0.03 | 1.03 ± 0.03 | 1.05 ± 0.03 |  |  |  |  |
| CCC(C)(C)OC [2-methoxy-2-methylbutane] + CCCCCC[n+]1ccn(C)c1.O=S(=O)([N-]S(=O)(=O)C(F)(F)F)C(F)(F)F | 1.83 ± 0.08 | 1.9 ± 0.08 | 1.94 ± 0.09 | 2.02 ± 0.09 |  |  |  |  |
| CCCO [propan-1-ol] + CCCCCC[n+]1ccn(C)c1.O=S(=O)([N-]S(=O)(=O)C(F)(F)F)C(F)(F)F | 1.9 ± 0.08 | 1.71 ± 0.07 | 1.57 ± 0.06 | 1.45 ± 0.05 |  |  |  |  |
| C=CCCCC [hex-1-ene] + CCCC[N+]1(C)CCCC1.O=S(=O)([N-]S(=O)(=O)C(F)(F)F)C(F)(F)F |  |  |  |  | 7.08 ± 0.35 | 6.92 ± 0.35 | 6.82 ± 0.34 | 6.64 ± 0.33 |
| CO [methanol] + CCCCCC[n+]1ccn(C)c1.O=S(=O)([N-]S(=O)(=O)C(F)(F)F)C(F)(F)F | 1.3 ± 0.04 | 1.19 ± 0.04 | 1.1 ± 0.03 | 1.02 ± 0.03 |  | 1.16 ± 0.06 | 1.14 ± 0.06 | 1.05 ± 0.05 |
| C=CCCCC [hex-1-ene] + CCCCCC[n+]1ccn(C)c1.O=S(=O)([N-]S(=O)(=O)C(F)(F)F)C(F)(F)F | 4.71 ± 0.21 | 4.61 ± 0.21 | 4.48 ± 0.2 | 4.44 ± 0.2 | 4.64 ± 0.23 | 4.56 ± 0.23 | 4.48 ± 0.22 | 4.39 ± 0.22 |
